From patent US6599522B2, “Triglyceride reducing agent” (priority 2000, dated 2003)
“And” between values parts separate entries of the source, which are not always exact repeats. Identical values can stand only once. Like-named read-outs stand apart in the source and are kept apart here. Marks after values point to notes of the source that are not given here.

Legend:
[1] = test system: guinea pigs; conditions: guinea pig, in vivo; cited from earlier work
[2] = test system: hyperlipidemic patients; assay: Clinical study: effect of the hypolipidemic agent on elevated triglyceride levels in blood; format: in vivo, human
Description: Effect (in vivo) of the Hypolipidemic Agent on Elevated Triglyceride Levels in Blood-Clinical Study Patients attending the Endocrinology and Metabolism outpatient department of […] Medical College Hospital were included in the study. Patients with baseline serum total cholesterol above 200 mg/dl and/or serum triglycerides above 200 mg/dl after 6-12 weeks of low fat diet, exercise and weight reduction program, were included in the study. The compliance of the subjects for diet, weight and exercise schedules were monitored throughout the study. The number of patients recruited for the study were 37, including a child. There were […] in the age group of 30 to 62 years. Of the 37 patients, 23 patients were diabetic (type two diabetes) and 16 patients had essential hypertension, and two women and nine men were obese, the others being of normal weight. Two men and one person dropped out of the study, due to unknown causes. Of the original patients, 34 completed the study as per the protocol. In the initial visit, patient's height in centimeters, and weight in kilograms were recorded. After noting detailed history, physical examinations were performed on each patient. Informed consent was taken from all patients and, in the case of minors, from their parents. Blood samples were drawn for routine hematology, fasting and post prandial plasma glucose, blood urea, serum creatinine, liver function test and lipid profile. At each visit, the patient's weight and diet and exercise compliance was checked and blood samples for hematology and lipid profile were drawn. The patients were given 20 mg of Vanillin in gelatin capsule once a day before the main meal. At each visit, pill count was done to check the compliance of the drug intake. The data were recorded in the case record form and computer by authorized persons. The data were analyzed statistically.

[3] = test system: hyperlipidemic rats; assay: Dose response spectrum of the hypolipidemic agent, animal assay on hyperlipidemic diet; format: in vivo, Wistar male rats; parameters: Serum triglycerides, TOTAL / Serum triglycerides, LDL-VLDL / Serum triglycerides, HDL: unit not given here; conditions: six weeks; for Hypocholesterolemic effect, lowering: mainly LDL-VLDL fraction
Text: Dose Response Spectrum of the Hypolipidemic Agent—Animal Assay: The response in terms of the lowering of triglyceride component in the majority of the human cases were encouraging. This initiated a dose response test in young adult rats to determine a standard response curve. Such a curve would help in choosing the proper doses for further clinical trials and determine the adequacy and nature of the response. The tests were done on groups of young Wistar male rats, statistically distributed on the basis of body weight (125±5 g) into six groups, including a control group. […] The basal hyperlipidemic diet contained (g/100): casein 15, corn starch 40, cane sugar 10, hydrogenated fat 25, refined peanut oil 5, NRC vitamin mixture (choline free) 1, and salt mixture (Bernhardt-Tomarrelli modified) 4. Fat soluble vitamins at desired concentrations were added to the peanut oil. Vanillin was incorporated into the hyperlipidemic diet in replacement of starch at the desired levels. The duration of the test feeding period was six weeks. At the end of the experimental period, the rats were sacrificed and lipid analysis was done using standard procedures.

[4] = test system: rats; conditions: cited from earlier work
[5] = test system: rabbits; conditions: rabbit, in vivo; cited from earlier work
[6] = man; cited from earlier work
[7] = test system: rats; conditions: cited from earlier work; remark: listed apart in the source
[8] = 20 mg/day oral, throughout the study
[9] = mean of 10 patients, baseline mean 425.2, p < 0.0005 vs TG1, 20 mg/day

COc1cc(C=O)ccc1O [Vanillin, 4-hydroxy-3-methoxybenzaldehyde]
Acute oral LD50 [1]: 1400 mg/kg
Change in serum HDL level ([2]; 20 mg/day): no significant change
Adverse effects in patients [2, 8]: No adverse effects
Routine biochemistry, hematology and liver function tests [2, 8]: did not show any significant change
DELTA = (TG1 − TG3) ([2]; individual patient, before treatment minus 6 weeks after treatment, 20 mg/day): 243 mg/dL and 199 mg/dL and 218 mg/dL and 120 mg/dL and 168 mg/dL and 236 mg/dL and 133 mg/dL and 250 mg/dL and 158 mg/dL and 224 mg/dL
(DELTA/TG1) ×100 ([2]; individual patient, reduction of serum triglyceride at 6 weeks, 20 mg/day): 41.68% and 52.15% and 53.96% and 42.25% and 30.65% and 49.58% and 43.18% and 58.14% and 47.02% and 44.44%
DELTA = (TG1 − TG3), mean ([2]; mean of 10 patients, 20 mg/day): 194.9 mg/dL
(DELTA/TG1) ×100, mean ([2]; mean of 10 patients, 6 weeks, 20 mg/day): 46.34%
TG2: fasting serum triglyceride level 3 weeks after treatment, mean [2, 9]: 306.0** mg/dl
TG3: fasting serum triglyceride level 6 weeks after treatment, mean [2, 9]: 230.3 mg/dL
Change from baseline total cholesterol, mean ([2]; mean, 20 mg/day): 74.5 mg/dL
Reduction of serum triglyceride ([2]; patient, about six weeks, 20 mg/day): up to 75%
Serum triglyceride after treatment ([2]; patient, initial value 3078 mg/dl, about six weeks, 20 mg/day): 786 mg/dL
Liver total lipids ([3]; 0.125% and 0.25% in diet): significantly higher
Triglycerides in the liver ([3]; 0.125% and 0.25% in diet): higher accumulation
Decrease in HDL cholesterol ([3]; 0.125% in diet): 16%
Hypocholesterolemic effect, lowering ([3]; 0.125% in diet): 18%
Serum triglycerides, HDL ([3]; 0.125% in hyperlipidemic diet): 69.3 ± 7.0
Serum triglycerides, LDL-VLDL ([3]; 0.125% in hyperlipidemic diet): 128.3 ± 4.1
Serum triglycerides, TOTAL ([3]; 0.125% in hyperlipidemic diet): 197.6 ± 9.74
Hypocholesterolemic effect, lowering ([3]; 0.25% in diet): 12%
Serum triglycerides, HDL ([3]; 0.25% in hyperlipidemic diet): 74.3 ± 10.4
Serum triglycerides, LDL-VLDL ([3]; 0.25% in hyperlipidemic diet): 147.1 ± 6.5
Serum triglycerides, TOTAL ([3]; 0.25% in hyperlipidemic diet): 221.4 ± 16.5
Decrease in serum phospholipids ([3]; 0.5% in diet): 19%
Serum triglycerides, HDL ([3]; 0.5% in hyperlipidemic diet): 29.8 ± 6.5
Serum triglycerides, LDL-VLDL ([3]; 0.5% in hyperlipidemic diet): 127.0 ± 4.3
Serum triglycerides, TOTAL ([3]; 0.5% in hyperlipidemic diet): 156.8 ± 10.4
Adipose fat ([3]; 1% and 5% levels in diet): lowered
Decrease in serum phospholipids ([3]; 1.0% in diet): 14%
Serum triglycerides, HDL ([3]; 1.0% in hyperlipidemic diet): 41.7 ± 5.5
Serum triglycerides, LDL-VLDL ([3]; 1.0% in hyperlipidemic diet): 104.8 ± 4.9
Serum triglycerides, TOTAL ([3]; 1.0% in hyperlipidemic diet): 146.5 ± 9.33
Serum triglycerides, HDL ([3]; 5.0% in hyperlipidemic diet): 38.6 ± 4.8
Serum triglycerides, LDL-VLDL ([3]; 5.0% in hyperlipidemic diet): 141.8 ± 10.3
Serum triglycerides, TOTAL ([3]; 5.0% in hyperlipidemic diet): 180.4 ± 3.69
Liver weights ([3]; any of the levels tested (0.125-5% in diet)): not affected
Reduction in serum triglycerides ([4]; 0.15 mg % vanillin): 24%
Acute oral LD50 [5]: 3000 mg/kg
Metabolism and excretion [6]: converted to vanillic acid in the liver and is excreted in the urine
Body and organ weights, hematology, and histopathology, test versus control rats ([7]; 1.0% of diet 16 weeks, 0.1% 27 to 28 weeks, 2.0% and 5.0% one year, 0.5%, 1.0% and 2.0% two years): no significant differences
Adverse effects ([7]; rats, 5% diet for 90 days (earlier study)): growth depression and organ enlargement
Daily intake equal to the highest level without adverse effect ([7]; rats, 5% in diet): ~2500 mg/kg
Highest level consumed without adverse effect ([7]; rats, level in diet): 5%
Adverse effects ([7]; rats, oral, once a day 20 mg/kg/d for 126 days): no adverse effects
Adverse effects ([7]; rats, oral, twice per week 300 mg/kg/dose for 14 weeks): no adverse effects
Highest no-adverse-effect intake relative to estimated per capita daily intake ([7]; versus a 60-kg person): ~14,000 times

COc1cc(CNC(=O)CCCC/C=C/C(C)C)ccc1O [capsaicin, reference compound]
Reduction in serum triglycerides ([4]; 0.3 mg % capsaicin): 13%
